Laboratory results: patent publication US20240158404A1, “MODULATORS OF ALPHA-1 ANTITRYPSIN” (Vertex Pharmaceuticals Incorporated, priority 2022, published 2024)

What was measured:
[1] = Exposure multiple in rat 5-day toxicology studies; format: in vivo; parameters: key to Exposure Multiple: ratio of tox-species AUC to target efficacious AUCss; conditions: for EM Score: based on the maximum exposure multiple achieved in the rat 5-day toxicology study; for Exposure Multiple: rat 5-day toxicology study, vs predicted human efficacious exposure
Text: “Exposure multiple” as used herein, refers to an assessment of relative compound exposure in toxicology studies. The calculation of an exposure multiple is accomplished by comparing the exposure (AUC) achieved in a toxicology species relative to the target efficacious exposure at steady state (AUCss). The larger exposure multiple provides the opportunity to explore higher doses relative to efficacious concentration in clinical development. However, the exposure that results in an adverse toxicological outcome is unpredictable.
The calculation of an exposure multiple is accomplished by comparing the plasma exposure (AUC) achieved in a toxicology species relative to the target efficacious exposure at steady state (AUCss). […] In addition, this exposure multiple can allow for further exploration of the desired pharmacology due to the opportunity for a larger window established in toxicology studies. However, the exposure that results in a toxicological outcome in preclinical toxicology studies is unpredictable.
Human exposure multiple (EM) values shown relate to the fold increase in exposure achieved in rat 5-day toxicology studies for a given dose relative to the predicted efficacious exposure anticipated in human (based on cellular NL20 EC50 in vitro efficacy). The exposure multiple score is based on the maximum exposure multiple achieved in the given study. This allows relative comparison across compounds when also considering the administered dose. […] In the tables below, the following meanings apply for exposure multiple scores: “−” means <1; “+” means 1-10; “++” means 10-20; “+++” means 20-30; “++++” means 30-50; and “+++++” means >50.

AAT = target: T1, AAT (Homo sapiens, UniProt P01009, E366K); experiment: Compound Quality score (potency in AAT functional assay multiplied by unbound clearance); conditions: compound potency (EC50) x unbound clearance; class symbols
T1 construct: expressed in transfected cells; host or cells: NL20 human bronchial epithelial cells (NL20-SI cell line), with doxycycline added alongside the compounds
T1 sequence (P01009 25-418 E366K): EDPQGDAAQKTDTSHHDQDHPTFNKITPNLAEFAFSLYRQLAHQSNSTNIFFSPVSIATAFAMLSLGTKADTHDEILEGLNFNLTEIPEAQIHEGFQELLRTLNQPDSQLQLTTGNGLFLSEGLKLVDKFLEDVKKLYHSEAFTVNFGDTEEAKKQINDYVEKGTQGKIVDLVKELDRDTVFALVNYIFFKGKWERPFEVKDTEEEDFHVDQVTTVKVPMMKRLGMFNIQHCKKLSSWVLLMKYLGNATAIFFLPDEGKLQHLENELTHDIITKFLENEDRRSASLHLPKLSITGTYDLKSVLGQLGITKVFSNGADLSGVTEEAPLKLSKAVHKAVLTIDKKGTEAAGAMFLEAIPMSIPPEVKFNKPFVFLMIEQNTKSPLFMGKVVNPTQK
Text: As used herein, the term “Compound Quality” refers to the potency of a compound multiplied (x) by the compound's unbound clearance as measured using the assays described in Example 6.
The terms “unbound clearance” refer to unbound intrinsic clearance (unbound CLint) in hepatocytes—the intrinsic clearance a drug would have in the absence of protein binding. Unbound CLint=CLint,hep/fu,hep, where CLint,hep is intrinsic clearance in hepatocytes and fu,hep is unbound fraction in hepatocytes.
A key consideration for the selection of compounds suitable for clinical development is the projection of human dose as described in Equations 1-3. Two key parameters that comprise the dose equation are the unbound clearance of a compound and the plasma efficacious exposure (also referred to herein as compound potency). Together these parameters are known to one skilled in the art as a measurement of Compound Quality and suitability for advancement into clinical development. Thus, when evaluating AAT modulator compounds, one needs to consider both the potency and unbound clearance parameters (i.e., Compound Quality). The relationship between these two parameters can be challenging to predict.
The values provided in the table below are calculated by multiplying the EC50 of each of the compounds by the result from the clearance assay procedures described in Section C above and rounded to two significant figures. In the table below, the following meanings apply for Compound Quality (i.e., compound potency x unbound clearance) values: “++++” means ≤0.2; “+++” means >0.20 and ≤0.30; “++” means >0.30 and ≤0.40; “+” means >0.40 and ≤0.50.

CC[C@@](O)(COC)c1c(-c2ccc(C(=O)O)cc2)c2c(F)c3[nH]ncc3cc2n1-c1ccc(F)c(Cl)c1 [Compound 4]
EM Score [1]: ++++ (“++++” means 30-50) | Exposure Multiple ([1]; Bid dose 50 (daily 100)): 8 | Exposure Multiple ([1]; Bid dose 200 (daily 400)): 21 | Exposure Multiple ([1]; Bid dose 400 (daily 800)): 32 | Compound Quality (AAT): +++ (“+++” means >0.20 and ≤0.30)

CC[C@@](O)(COC)c1c(-c2ccc(C(=O)O)cc2)c2c(F)c3[nH]ncc3cc2n1-c1ccc(F)c(F)c1 [Compound 5, (S)-4-(5-(3,4-Difluorophenyl)-8-fluoro-6-(2-hydroxy-1-methoxybutan-2-yl)-1,5-dihydropyrrolo[2,3-f]indazol-7-yl)benzoic acid]
EM Score [1]: +++++ (“+++++” means >50) | Exposure Multiple ([1]; Bid dose 50 (daily 100)): 39 | Exposure Multiple ([1]; Bid dose 150 (daily 300)): 114 | Exposure Multiple ([1]; Bid dose 300 (daily 600)): 173 | Compound Quality (AAT): ++++ (“++++” means ≤0.2)
